Test results: patent US8648076B2, “Cysteine protease inhibitors and their therapeutic applications” (Hybrigenics SA, priority 2005, dated 2014)
Like-named read-outs stand apart in the source and are kept apart here.

Key:
[1] = system: HCT116 colon cancer cells; test: HCT116 cell viability and proliferation assay (MTS); type: cell-based; settings: Homo sapiens, read-out: HCT116 D3 GI50
USP7 = molecular target: T1, USP7 (Homo sapiens, UniProt Q93009); test: USP7 activity assay; type: biochemical
T1 construct: His tag (from pFastBac-HT vector) (N); made in house; host or cells: insect cells (Sf9 or High Five), baculovirus

[2] = system: PC-3 prostate cancer cells; test: PC3 cell viability and proliferation assay (MTS); type: cell-based; settings: Homo sapiens, PC-3, 72 h, read-out: PC3 D3 GI50
Uch-L3 = molecular target: T2, Uch-L3 (Homo sapiens, UniProt P15374); test: UCH-L3 activity assay; type: biochemical; settings: 400 nM Ub-AMC, 13 pM enzyme, 30 min pre-incubation at 25° C., 60 min at 37° C.; sigmoidal fit; AF: Autofluorescent; read-out: Uch-L3 (inhibition of cysteine protease activity)
T2 sequence (P15374 1-230): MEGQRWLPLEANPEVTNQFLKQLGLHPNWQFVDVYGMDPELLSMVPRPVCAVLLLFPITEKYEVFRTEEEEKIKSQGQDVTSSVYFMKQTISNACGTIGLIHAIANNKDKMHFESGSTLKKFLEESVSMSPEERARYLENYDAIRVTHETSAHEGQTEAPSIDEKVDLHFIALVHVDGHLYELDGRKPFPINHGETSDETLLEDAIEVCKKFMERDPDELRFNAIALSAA
Experimental: Bovine Serum Albumin 0.05 mg·ml^−1 pH7.6). Compounds stocks (100 mM) were stored at −20° C. in DMSO. […] Reactions were performed as duplicates in Black LJL 96 well plates (HE microplates; Molecular Devices; 20 μl final reaction volume). The substrate concentration for Uch-L3 was 400 nM Ub-AMC (Boston Biochem). The concentration of the enzyme (Uch-L3) in specificity assays was 13 pM. The concentrations were determined in order to perform specificity assays under initial velocities at fixed substrate concentration. Compounds were pre-incubated with enzymes for 30 minutes at 25° C. Reactions were initiated by addition of substrate to the plates containing the enzymes (+/−compounds) diluted in assay buffer. Reactions were incubated for 60 minutes at 37° C. Reactions were stopped by adding acetic acid (100 mM final). Readings were performed on a Pherastar Fluorescent Reader (BMG). δ Emission 380 nm; δ Excitation=460 nm. Data (mean values+/− standard deviation) were analyzed as % of control (no compound) and plotted as percentage versus the Log of the compound concentration using GraphPad (Prism). Data were fitted to a sigmoidal model (variable slope).

USP5 = molecular target: T3, USP5 (Homo sapiens, UniProt P45974); test: USP5 activity assay; type: biochemical; settings: 400 nM Ub-AMC, 300 pM enzyme, 30 min pre-incubation at 25° C., 60 min at 37° C.; sigmoidal fit; AF: Autofluorescent; read-out: USP 5 (inhibition of cysteine protease activity)
T3 sequence (P45974 1-858): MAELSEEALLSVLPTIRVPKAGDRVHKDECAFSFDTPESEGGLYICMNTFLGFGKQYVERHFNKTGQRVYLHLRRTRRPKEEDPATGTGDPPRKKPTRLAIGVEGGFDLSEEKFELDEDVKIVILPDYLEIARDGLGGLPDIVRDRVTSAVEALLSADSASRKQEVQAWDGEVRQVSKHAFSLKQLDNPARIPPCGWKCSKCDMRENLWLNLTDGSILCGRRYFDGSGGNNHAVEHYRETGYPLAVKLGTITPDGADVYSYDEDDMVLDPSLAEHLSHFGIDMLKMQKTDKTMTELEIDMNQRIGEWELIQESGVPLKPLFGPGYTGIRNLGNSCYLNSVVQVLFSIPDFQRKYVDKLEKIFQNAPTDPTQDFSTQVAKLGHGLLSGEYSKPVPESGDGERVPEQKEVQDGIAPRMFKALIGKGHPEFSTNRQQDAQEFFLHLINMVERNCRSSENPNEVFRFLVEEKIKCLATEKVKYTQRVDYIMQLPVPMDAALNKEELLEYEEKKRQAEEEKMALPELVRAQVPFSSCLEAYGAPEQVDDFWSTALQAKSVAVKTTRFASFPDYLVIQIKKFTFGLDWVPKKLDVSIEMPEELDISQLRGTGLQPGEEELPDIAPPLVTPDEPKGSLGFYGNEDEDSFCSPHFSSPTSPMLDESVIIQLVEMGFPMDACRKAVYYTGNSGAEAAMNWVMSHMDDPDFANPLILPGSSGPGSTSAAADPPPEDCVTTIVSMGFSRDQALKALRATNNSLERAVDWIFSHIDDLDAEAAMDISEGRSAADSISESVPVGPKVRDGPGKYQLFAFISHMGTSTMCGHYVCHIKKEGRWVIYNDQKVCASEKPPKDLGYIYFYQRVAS
Experimental: Bovine Serum Albumin 0.05 mg·ml^−1 pH7.6). Compounds stocks (100 mM) were stored at −20° C. in DMSO. […] Reactions were performed as duplicates in Black LJL 96 well plates (HE microplates; Molecular Devices; 20 μl final reaction volume). The substrate concentration for USP5 was 400 nM Ub-AMC (Boston Biochem). The concentrations of the enzyme (USP5) in specificity assays was 300 pM. The concentrations were determined in order to perform specificity assays under initial velocities at fixed substrate concentration. Compounds were pre-incubated with enzymes for 30 minutes at 25° C. Reactions were initiated by addition of substrate to the plates containing the enzymes (+/− compounds) diluted in assay buffer. Reactions were incubated for 60 minutes at 37° C. Reactions were stopped by adding acetic acid (100 mM final). Readings were performed on a Pherastar Fluorescent Reader (BMG). λ Emission 380 nm; λ Excitation=460 nm. Data (mean values +/− standard deviation) were analyzed as % of control (no compound) and plotted as percentage versus the Log of the compound concentration using GraphPad (Prism). Data were fitted to a sigmoidal model (variable slope).

[3] = HCT-116, HCT116 cells, 72 hours incubation, MTS, mean of 3 independent experiments
[4] = 400 nM Ub-AMC, 152 pM enzyme, 30 min pre-incubation at 25° C., 60 min at 37° C., sigmoidal fit, read-out: USP 7 (inhibition of cysteine protease activity)
[5] = PC3 cells, 72 hours incubation, MTS, mean of 3 independent experiments

T1 sequence (Q93009 whole entry): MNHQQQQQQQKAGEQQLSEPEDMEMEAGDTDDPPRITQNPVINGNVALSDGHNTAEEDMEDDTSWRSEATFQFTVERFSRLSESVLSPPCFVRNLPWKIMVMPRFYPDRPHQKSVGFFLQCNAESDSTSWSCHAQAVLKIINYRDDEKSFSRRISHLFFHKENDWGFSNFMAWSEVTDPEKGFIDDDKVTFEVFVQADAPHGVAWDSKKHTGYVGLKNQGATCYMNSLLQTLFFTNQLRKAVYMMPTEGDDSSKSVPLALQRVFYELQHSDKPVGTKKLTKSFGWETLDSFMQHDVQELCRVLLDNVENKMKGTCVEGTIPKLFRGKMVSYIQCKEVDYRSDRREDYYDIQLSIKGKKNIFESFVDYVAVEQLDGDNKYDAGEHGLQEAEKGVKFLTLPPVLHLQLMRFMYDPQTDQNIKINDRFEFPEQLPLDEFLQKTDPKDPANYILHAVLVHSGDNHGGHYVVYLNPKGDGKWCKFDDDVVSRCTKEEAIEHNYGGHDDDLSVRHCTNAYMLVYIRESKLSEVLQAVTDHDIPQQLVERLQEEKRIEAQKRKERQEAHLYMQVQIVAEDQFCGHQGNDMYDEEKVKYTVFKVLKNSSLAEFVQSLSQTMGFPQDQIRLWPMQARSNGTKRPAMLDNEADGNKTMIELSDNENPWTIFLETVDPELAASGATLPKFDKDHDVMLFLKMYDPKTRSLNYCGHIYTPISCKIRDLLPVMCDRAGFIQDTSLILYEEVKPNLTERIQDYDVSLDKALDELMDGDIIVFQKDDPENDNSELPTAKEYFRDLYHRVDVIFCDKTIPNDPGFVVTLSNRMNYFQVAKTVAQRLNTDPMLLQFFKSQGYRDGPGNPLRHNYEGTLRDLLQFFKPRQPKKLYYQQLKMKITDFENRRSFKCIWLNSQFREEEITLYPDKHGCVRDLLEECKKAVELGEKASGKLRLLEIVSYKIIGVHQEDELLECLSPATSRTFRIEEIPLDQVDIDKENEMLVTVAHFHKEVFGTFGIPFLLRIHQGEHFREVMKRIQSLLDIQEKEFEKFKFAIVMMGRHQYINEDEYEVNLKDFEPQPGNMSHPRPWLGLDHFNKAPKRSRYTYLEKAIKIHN

| SMILES | GI50 ([1]; HCT-116, 72 h) [µM] | IC50 (USP7) [µM] | GI50 [2] [µM] | IC50 (Uch-L3) [µM] | IC50 (USP5) [µM] | GI50 [1, 3] [µM] | IC50 (USP7; [4]) [µM] | GI50 [2, 5] [µM] |
| --- | --- | --- | --- | --- | --- | --- | --- | --- |
| CC(=O)O/N=C1\c2ccccc2-c2nc(C(N)=O)c(C#N)nc21 (single isomer, unassigned) [Example 35, 2-cyano-9-acetoxyimino-9H-indeno[1,2-b]pyrazine-3-carboxylic acid amide] | 1.35 | 0.506 | 1.28 | 0.048 | 0.161 |  |  |  |
| C=CCON=C1c2ccccc2-c2nc(C(N)=O)c(C#N)nc21 [Example 34a, 9-Allyloxyimino-2-cyano-9H-indeno[1,2-b]pyrazine-3-carboxylic acid amide] | 0.496 | 0.5 | 0.511 | 0.032 | 0.143 |  |  |  |
| N#Cc1nc2c(nc1C#N)-c1ccccc1C2=Nc1ccccc1 (mixture of isomers) [Example 14, 9-[phenylimino]-9H-indeno[1,2-b]pyrazine-2,3-dicarbonitrile] |  |  |  | 0.39 | 1.9 | 0.43 | 4.1 | 0.51 |
| N#Cc1nc2sc3ccccc3c2nc1C#N [Example 19, benzo[4,5]thieno[2,3-b]pyrazine-2,3-dicarbonitrile] |  |  |  | > 100 | > 100 | 10 | > 100 | 4.2 |
| N#Cc1nc2c(nc1Cl)-c1ccccc1C2=O [Example 9, 3-chloro-9-oxo-9H-indeno[1,2-b]pyrazine-2-carbonitrile] |  |  |  | 8.8 | > 100 | > 10 | > 100 | > 10 |
| Cc1cccc2c1Cc1nc(C#N)c(C#N)nc1-2 [Example 16c, 8-Methyl-9H-indeno[1,2-b]pyrazine-2,3-dicarbonitrile] |  |  |  | > 100 | > 100 | 1.47 | > 100 | 3.37 |
| CN(C)c1nc2c(nc1C#N)C(=O)c1ccccc1-2 [Example 4, 3-dimethylamino-9-oxo-9H-indeno[1,2-b]pyrazine-2-carbonitrile] |  |  |  | > 100 | > 100 | > 10 | > 100 | > 10 |
| N#Cc1nc2c(nc1N1CCC(F)(F)CC1)-c1ccccc1C2=O [Example 8, 3-(4,4-difluoro-piperidin-1-yl)-9-oxo-9H-indeno[1,2-b]-pyrazine-2-carbonitrile] |  |  |  | > 100 | > 100 | > 10 | > 100 | > 10 |
| COc1nc2c(nc1C#N)C(=O)c1ccccc1-2 [Example 3, 3-methoxy-9-oxo-9H-indeno[1,2-b]pyrazine-2-carbonitrile] |  |  |  | 13 | > 100 | > 10 | > 100 | > 10 |
| C=CCON=C1c2ccc(Cl)cc2-c2nc(C#N)c(C#N)nc21 [Example 27c, 9-Allyloxyimino-6-chloro-9H-indeno[1,2-b]pyrazine-2,3-dicarbonitrile] | 0.421 | 3.5 | 0.803 | 0.502 | 1.7 |  |  |  |
| N#Cc1nc2c(nc1C#N)-c1ccc(F)cc1C2=O [Example 17h, 7-Fluoro-9-oxo-9H-indeno[1,2-b]pyrazine-2,3-dicarbonitrile] |  |  |  | 0.33 | 1 | 0.16 | 4.3 | 0.57 |
| N#Cc1nc2c(nc1O)-c1ccccc1C2=O [Example 6, 3-hydroxy-9-oxo-9H-indeno[1,2-b]pyrazine-2-carbonitrile] |  |  |  | 1.1 | 9.1 | > 10 | 21.8 | > 10 |
| N#CNc1nc2c(nc1C#N)C(=O)c1ccccc1-2 [Example 21, 2-cyano-9-oxo-9H-indeno[1,2-b]pyrazin-3-yl-cyanamide] |  |  |  | > 100 | > 100 | > 10 | > 100 | > 10 |
| N#Cc1nc2c(nc1C#N)-c1ccc(Cl)cc1C2=NOCCOc1ccccc1 [Example 27b, 7-Chloro-9-(2-phenoxy-ethoxyimino)-9H-indeno[1,2-b]pyrazine-2,3-dicarbonitrile] | 0.294 | > 100 | 0.259 | 1.7 | > 100 |  |  |  |
| N#Cc1nc2c(nc1C#N)-c1ccccc1/C2=N/Oc1ccccc1 [Example 13e, 9-Phenoxyimino-9H-indeno[1,2-b]pyrazine-2,3-dicarbonitrile] |  |  |  | 0.54 | 32 | 0.54 | > 100 | 0.53 |
| N#Cc1nc2c(nc1C#N)C(=O)c1ccccc1C2=O [Example 20, 5,10-dioxo-5,10-dihydro-benzo[g]quinoxaline-2,3-dicarbonitrile] | 0.78 | > 100 | 1.26 | 39.6 | > 100 |  |  |  |
| N#Cc1nc2c(nc1CC(N)=O)-c1ccccc1C2=O [Example 26, 2-(2-cyano-9-oxo-9H-indeno[1,2-b]pyrazin-3-yl)-acetamide] | > 10 | > 100 | > 10 | 1.6 | 60 |  |  |  |
| C=CCON=C1c2ccccc2-c2nc(C#N)c(C#N)nc21 (mixture of isomers) [Example 13b, 9-(Allyloxyimino)-9H-indeno[1,2-b]pyrazine-2,3-dicarbonitrile] | 0.58 | > 100 | 0.54 | 10 | > 100 |  |  |  |
| CCON=C1c2ccccc2-c2nc(C#N)c(C#N)nc21 (mixture of isomers) [Example 13d, 9-Ethoxyimino-9H-indeno[1,2-b]pyrazine-2,3-dicarbonitrile] |  |  |  | 1.3 | > 100 | 1.18 | > 100 | 1.54 |
| CON=C1c2ccccc2-c2nc(C#N)c(C#N)nc21 [Example 13a, 9-(methoxyimino)-9H-indeno[1,2-b]pyrazine-2,3-dicarbonitrile] | 0.39 | > 100 | 0.43 | 2.2 | 19.5 |  |  |  |
